The subject of the assay is 931267-113-T-J1-PDC multicell spheroid viability. Kind of assay: Anticancer human tumor 931267-113-T-J1-PDC patient-derived colon adenocarcinoma cell line growth inhibition [PI3K]. As to conditions: for viability, T/C: stronger effect = lower value. An excerpt:
Combinatorial screen of targeted agents with the PI3K inhibitors inavolisib, alpelisib, duvelisib, and copanlisib in multi-cell type tumor spheroids
A high-throughput screen of multi-cell type tumor spheroids was designed to identify active combinations of targeted small molecules and PI3K pathway inhibitors. Complex spheroids include a stromal component modeled by human endothelial cells (HUVEC) and fibroblasts modeled by human mesenchymal stem cells (MSCs). The concentration ranges selected for each drug and investigational agent were based upon clinically achievable concentrations if the clinical Cmax of the agent was known.
Compounds. The drugs and investigational agents: inavolisib (NSC800729), alpelisib (NSC765974), duvelisib (NSC772469), copanlisib (NSC816437), ipatasertib (NSC767898), afuresertib (NSC778305), talazoparib (NSC767125), sapanisertib (NSC764658), selumetinib (NSC741078), tovorafenib (DAY101, NSC766906), vemurafenib (NSC761431), ravoxertinib (NSC781343), sotorasib (NSC818433), MRTX1133 (NSC 836407), abemaciclib (NSC 768073), palbociclib (NSC758247), venetoclax (NSC 766270), SY5609 (NSC837396), enzalutamide (NSC755605), and darolutamide (NSC825331), were obtained from the National Cancer Institute (NCI) Developmental Therapeutics Program Chemical Repository. The FDA-approved anticancer drug set is available from the NCI Developmental Therapeutics Program. […] The stock solutions were prepared in dimethyl sulfoxide (DMSO, Sigma-Aldrich, St. Louis, MO, cat. D2650) at 800-fold the tested concentration and stored at -70 degrees C prior to their use. All drugs and investigational agents were tested over a range starting from a high concentration at or near the clinical Cmax and decreasing in half-log increments. If the clinical Cmax for an agent had not been determined, the highest concentration tested was 10 microM.
Cell Culture. All cells were maintained in an incubator at 37 degrees C and 5% CO2 with 95% humidity. The PDC lines were cultured according to standard operating procedures established by the NCI PDMR (https://pdmr.cancer.gov/sops/default.htm). All PDCs were thawed and cultured in Matrigel-coated flasks prepared with a working solution of 1X Ham's F-12 nutrient mix, without supplementation (Invitrogen, Waltham, MA, cat. 11765054), 100 U/mL penicillin-streptomycin (Invitrogen, cat. 15140122), and 2.5% Matrigel (Corning Inc., Corning, NY, cat. 354248) for the first three passages. The 354836-022-R-J1-PDC, 475296-252-R-J1-PDC, and 997726-040-R-J2-PDC lines were cultured in 6A media, which includes advanced DMEM/F-12 (Thermo Fisher Scientific, cat. 12634028), 10 mM HEPES (Thermo Fisher Scientific, cat. 15630080), 1X GlutaMAX supplement (Thermo Fisher Scientific, cat. 35050061), 0.1 mg/mL primocin (InvivoGen, San Diego, CA, cat. ant-pm-2), 10% defined fetal bovine serum, heat inactivated (HyClone Laboratories Inc., Logan, UT, cat. SH30070.03HI), 50% L-WRN conditioned media (ATCC, cat. CRL-3276), 1.25 mM N-Acetyl-L-cysteine (Sigma-Aldrich, cat. A9165), 10 mM nicotinamide (Sigma-Aldrich, cat. N0636), 1X B-27 supplement (Thermo Fisher Scientific, cat. 17504044), 1X N-2 supplement (Thermo Fisher Scientific, cat. 17502048), and 10 microM Y-27632 dihydrochloride (Tocris Bioscience, Bristol, United Kingdom, cat. 1254). The 624824-186-R-J2-PDC line was cultured in 6C/Colon 1B media, which includes all 6A media components plus 50 ng/mL human EGF recombinant protein (Thermo Fisher Scientific, cat. PHG0311). […]

SMILES strings stand for the structures. Values joined by “and” are separate entries in the source; they are usually repeats but may differ in a detail not shown here. Identical values can stand only once. Where only a bound is given, the exact number is not on record here.
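Further: viability read 7 days after compound addition.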

Usually viability, T/C stands for the result in the treated group divided by that in the control group, in per cent. Usually IC50 stands for the concentration needed to halve the response being measured. Take `C#Cc1c(F)ccc2cc(O)cc(-c3ncc4c(N5CC6CCC(C5)N6)nc(OCC56CCCN5CC(F)C6)nc4c3F)c12` (centres undefined): the viability, T/C reads like this: (compound 0.0316 µM) 85% [middle of 4 runs]; (compound 0.1 µM) 71.4% [middle of 4 runs]; (compound 0.316 µM) 58.2% [middle of 4 runs]; (compound 1 µM) 44.2% [middle of 4 runs]; (compound 3.16 µM) 36.2% [middle of 4 runs]; (compound 10 µM) 24% and 25.4% and 23.7% (2×). Besides, the IC50 (curve of compound) was 670 nM [middle of 4 runs].

As to `C=CC(=O)N1CCN(c2nc(=O)n(-c3c(C)ccnc3C(C)C)c3nc(-c4c(O)cccc4F)c(F)cc23)C(C)C1` (centres undefined), the viability, T/C reads like this: (compound 0.0316 µM) 119% and 104% (2×) and 102%; (compound 0.316 µM) 106% [middle of 4 runs]; (compound 1 µM) 109% [middle of 4 runs]; (compound 3.16 µM) 108% and 110% (2×) and 107%; (compound 10 µM) 104% and 105% (2×) and 99.7%. Also, the IC50 (curve of compound) was more than 10000 nM.

With `CC1(C)CCC(Nc2ncc(C(F)(F)F)c(-c3c[nH]c4c(P(C)(C)=O)c(C#N)ccc34)n2)CN1` (centres undefined), the viability, T/C is, setting by setting: (compound 0.0316 µM) 107% [middle of 4 runs]; (compound 0.1 µM) 102% [middle of 4 runs]; (compound 0.316 µM) 89.3% [middle of 4 runs]; (compound 1 µM) 85.7% [middle of 4 runs]; (compound 10 µM) 64.5% [middle of 4 runs]. Besides, for the setting “curve of compound”, the IC50 is more than 10000 nM.

For `Cn1ncc(Cl)c1-c1cc(C(=O)NC(CN)Cc2cccc(F)c2)sc1Cl` (centres undefined), the viability, T/C is 105% [middle of 4 runs] (compound 0.0316 µM); 98.2% [middle of 4 runs] (compound 0.1 µM); 96.1% [middle of 4 runs] (compound 0.316 µM); 87.7% [middle of 4 runs] (compound 1 µM); 77.1% [middle of 4 runs] (compound 3.16 µM); 39.5% [middle of 4 runs] (compound 10 µM). The IC50 (curve of compound) was 7.22 µM [middle of 4 runs].

With `Cn1nccc1Nc1nccc(-c2ccn(C(CO)c3ccc(Cl)c(F)c3)c(=O)c2)n1` (centres undefined), the viability, T/C was 100% [middle of 4 runs] (compound 0.0316 µM); 91.3% [middle of 4 runs] (compound 0.1 µM); 90.2% [middle of 4 runs] (compound 0.316 µM); 74.1% [middle of 4 runs] (compound 1 µM); 67.2% [middle of 4 runs] (compound 3.16 µM); 40.4% [middle of 4 runs] (compound 10 µM).

On to `Cn1cnc2c(F)c(Nc3ccc(Br)cc3Cl)c(C(=O)NOCCO)cc21` + CC(Nc1ccc2c(c1)OCCn1cc(N3C(=O)OCC3C(F)F)nc1-2)C(N)=O, for which the IC50 runs as follows: (curve of first compound, second compound 0.00316 µM) 119 nM; (curve of first compound, second compound 0.01 µM) 99.7 nM; (curve of first compound, second compound 0.0316 µM) 80.1 nM; (curve of first compound, second compound 0.1 µM) 54.6 nM; (curve of first compound, second compound 0.316 µM) 36.4 nM; (curve of first compound, second compound 1 µM) 19.8 nM. For the same compound, the viability, T/C (second compound 0.00316 µM, first compound 0.00949 µM) is 69.8%; the viability, T/C (second compound 0.00316 µM, first compound 0.03 µM) is 71.2%; the viability, T/C (second compound 0.00316 µM, first compound 0.0949 µM) was 52.1%; the viability, T/C (second compound 0.00316 µM, first compound 0.3 µM) is 33.3%; the viability, T/C (second compound 0.00316 µM, first compound 0.949 µM) was 21.4%; the viability, T/C (second compound 0.00316 µM, first compound 3 µM) is 11.4%. Besides, the viability, T/C (second compound 0.01 µM, first compound 0.00949 µM) is 91.1%; the viability, T/C (second compound 0.01 µM, first compound 0.03 µM) is 74.7%; the viability, T/C (second compound 0.01 µM, first compound 0.0949 µM) is 50%; the viability, T/C (second compound 0.01 µM, first compound 0.3 µM) is 31%; the viability, T/C (second compound 0.01 µM, first compound 0.949 µM) was 15.3%; the viability, T/C (second compound 0.01 µM, first compound 3 µM) was 10.8%. In addition, the viability, T/C was 89.6% (second compound 0.0316 µM, first compound 0.00949 µM); 69.5% (second compound 0.0316 µM, first compound 0.03 µM); 47.9% (second compound 0.0316 µM, first compound 0.0949 µM); 25.2% (second compound 0.0316 µM, first compound 0.3 µM); 15.2% (second compound 0.0316 µM, first compound 0.949 µM); 9.45% (second compound 0.0316 µM, first compound 3 µM). The viability, T/C is, setting by setting: (second compound 0.1 µM, first compound 0.00949 µM) 75.9%; (second compound 0.1 µM, first compound 0.03 µM) 61.8%; (second compound 0.1 µM, first compound 0.0949 µM) 39.3%; (second compound 0.1 µM, first compound 0.3 µM) 21.3%; (second compound 0.1 µM, first compound 0.949 µM) 15.2%; (second compound 0.1 µM, first compound 3 µM) 8.34%. Further, the viability, T/C reads like this: (second compound 0.316 µM, first compound 0.00949 µM) 78.3%; (second compound 0.316 µM, first compound 0.03 µM) 53.9%; (second compound 0.316 µM, first compound 0.0949 µM) 31.3%; (second compound 0.316 µM, first compound 0.3 µM) 17.2%; (second compound 0.316 µM, first compound 0.949 µM) 10.9%; (second compound 0.316 µM, first compound 3 µM) 6.16%. Also, the viability, T/C reads like this: (second compound 1 µM, first compound 0.00949 µM) 63.1%; (second compound 1 µM, first compound 0.03 µM) 42%; (second compound 1 µM, first compound 0.0949 µM) 28.7%; (second compound 1 µM, first compound 0.3 µM) 15.9%; (second compound 1 µM, first compound 0.949 µM) 10.3%; (second compound 1 µM, first compound 3 µM) 4.28%.

The values are drawn from PubChem BioAssay AID1963970 (Molecular Pharmacology Branch, DTP, NCI, 2024).
